Assay results from ChEMBL document CHEMBL3804817, “Development of novel bis-naphthalimide derivatives and their anticancer properties” (Medchemcomm, 2016).
One block for each molecule: values may come before it. Activity calls are given as the source filed them. The calls are words filed in the database; no cut-off is given here.

Tests used:
[1] = system: MCF7; assay: Cytotoxicity against human MCF7 cells after 48 hrs by MTT assay; type: functional, cell-based; settings: MCF7, 48 h
[2] = system: HeLa; assay: Cell cycle arrest in human HeLa cells assessed as decrease in accumulation at G0/G1 phase phase by flow cytometry; type: functional, cell-based
[3] = system: HeLa; assay: Cell cycle arrest in human HeLa cells assessed as increase in accumulation at S phase by flow cytometry; type: functional, cell-based
[4] = system: A549; assay: Cytotoxicity against human A549 cells after 48 hrs by MTT assay; type: functional, cell-based; settings: A549, 48 h
[5] = system: HeLa; assay: Cytotoxicity against human HeLa cells after 48 hrs by MTT assay; type: functional, cell-based
[6] = Cytotoxicity against human SGC7901 cells after 48 hrs by MTT assay; type: functional, cell-based; settings: SGC-7901, 48 h
[7] = system: Calf thymus DNA; assay: Induction of DNA intercalation of calf thymus DNA assessed as increase in intensity of negative band at 245 nm at 2 x 10^-5 M by circular dichroism spectroscopy; type: nucleic-acid assay; settings: Bos taurus
[8] = system: Calf thymus DNA; assay: Induction of DNA intercalation of calf thymus DNA assessed as reduction in intensity of absorption using 0 to 6 x 10^-5 M calf thymus DNA by UV spectrophotometry; type: nucleic-acid assay; settings: Bos taurus
[9] = system: HeLa; assay: Induction of apoptosis in human HeLa cells assessed as early apoptotic cells at 5 uM by Annexin V-FITC/propidium iodide staining-based flow cytometry (reference value: 0.05%); type: functional
[10] = system: HeLa; assay: Cell cycle arrest in human HeLa cells assessed as accumulation at G1/G0 phase at 1 to 10 uM after 48 hrs by flow cytometry; type: functional
[11] = system: HeLa; assay: Induction of apoptosis in human HeLa cells assessed as early apoptotic cells at 2.5 uM by Annexin V-FITC/propidium iodide staining-based flow cytometry (reference value: 0.05%); type: functional
[12] = system: Calf thymus DNA; assay: Induction of DNA intercalation of calf thymus DNA assessed as increase in intensity of absorption using > 6 x 10^-5 M calf thymus DNA by UV spectrophotometry; type: nucleic-acid assay; settings: Bos taurus
[13] = system: Mus musculus; assay: Cardiotoxicity in Balb/c mouse assessed as increase in LDH level at 5 to 20 mg/kg, iv measured after 24 hrs; type: toxicity, organism-based; settings: in vivo
[14] = system: HeLa; assay: Induction of apoptosis in human HeLa cells assessed as late apoptotic cells at 5 uM by Annexin V-FITC/propidium iodide staining-based flow cytometry (reference value: 0.02%); type: functional
[15] = system: Calf thymus DNA; assay: Induction of DNA intercalation of calf thymus DNA assessed as increase in fluorescence intensity by fluorescence spectrophotometry; type: nucleic-acid assay; settings: Bos taurus
[16] = system: Mus musculus; assay: Cardiotoxicity in Balb/c mouse assessed as increase in AST level at 5 to 20 mg/kg, iv measured after 24 hrs; type: toxicity, organism-based; settings: in vivo
[17] = system: Calf thymus DNA; assay: Induction of DNA intercalation of calf thymus DNA assessed as increase in intensity of positive band at 275 nm at 2 x 10^-5 M by circular dichroism spectroscopy; type: nucleic-acid assay; settings: Bos taurus
[18] = system: HeLa; assay: Binding affinity to DNA in human HeLa cells at 2 uM after 12 hrs by confocal microscopy; type: cell-based
[19] = system: Calf thymus DNA; assay: Induction of DNA intercalation of calf thymus DNA assessed as hypsochromic shift by fluorescence spectrophotometry (reference value: 530 nanometer); type: nucleic-acid assay; settings: Bos taurus
[20] = system: Calf thymus DNA; assay: Induction of DNA intercalation of calf thymus DNA assessed as binding constant by fluorescence spectrophotometry; type: nucleic-acid assay; settings: Bos taurus
[21] = system: HeLa; assay: Cell cycle arrest in human HeLa cells assessed as accumulation at S phase at 1 to 10 uM after 48 hrs by flow cytometry; type: functional
[22] = system: HeLa; assay: Induction of apoptosis in human HeLa cells assessed as late apoptotic cells at 10 uM by Annexin V-FITC/propidium iodide staining-based flow cytometry (reference value: 0.02%); type: functional
[23] = system: HeLa; assay: Induction of apoptosis in human HeLa cells assessed as early apoptotic cells at 10 uM by Annexin V-FITC/propidium iodide staining-based flow cytometry (reference value: 0.05%); type: functional
[24] = system: Mus musculus; assay: Cardiotoxicity in Balb/c mouse assessed as increase in CK level at 5 to 20 mg/kg, iv measured after 24 hrs; type: toxicity, organism-based; settings: in vivo
[25] = system: HeLa; assay: Cell cycle arrest in human HeLa cells assessed as accumulation at G2/M phase at 1 to 10 uM after 48 hrs by flow cytometry; type: functional
[26] = system: HeLa; assay: Induction of apoptosis in human HeLa cells assessed as early apoptotic cells at 1 uM by Annexin V-FITC/propidium iodide staining-based flow cytometry (reference value: 0.05%); type: functional
[27] = system: Calf thymus DNA; assay: Induction of DNA intercalation of calf thymus DNA at 1 x 10^-5 M measured at 530 nm by fluorescence spectrophotometry; type: nucleic-acid assay; settings: Bos taurus
[28] = system: Mus musculus; assay: Toxicity in Balb/c mouse assessed as decrease in number of WBC at 5 to 20 mg/kg, iv measured after 24 to 96 hrs; type: organism-based; settings: in vivo
[29] = system: Calf thymus DNA; assay: Induction of DNA intercalation of calf thymus DNA measured at 320 to 520 nm at 2 x 10^-5 M by circular dichroism spectroscopy; type: nucleic-acid assay; settings: Bos taurus
[30] = system: Calf thymus DNA; assay: Induction of DNA intercalation of calf thymus DNA assessed as change in melting temperature at 5 x 10^-6 M by thermal denaturation analysis; type: nucleic-acid assay; settings: Bos taurus
[31] = system: Mus musculus; assay: Toxicity in Balb/c mouse assessed as increase in number of platelets at 5 to 20 mg/kg, iv measured after 24 to 96 hrs; type: organism-based; settings: in vivo
[32] = system: Mus musculus; assay: Toxicity in Balb/c mouse assessed as change in RBC at 5 to 20 mg/kg, iv measured after 24 to 96 hrs; type: organism-based; settings: in vivo
[33] = system: HeLa; assay: Induction of apoptosis in human HeLa cells assessed as late apoptotic cells at 2.5 uM by Annexin V-FITC/propidium iodide staining-based flow cytometry (reference value: 0.02%); type: functional
[34] = system: HeLa; assay: Induction of apoptosis in human HeLa cells assessed as late apoptotic cells at 1 uM by Annexin V-FITC/propidium iodide staining-based flow cytometry (reference value: 0.02%); type: functional
[35] = system: HeLa; assay: Induction of lysosome membrane permeabilization in human HeLa cells by […] (reference value: 1.69%); type: functional

SMILES: CN(C)CCN1C(=O)c2cccc3cc(N)cc(c23)C1=O [AMONAFIDE]
IC50 [1]: 8.02 µM
inhibition [2]: Dose-dependent effect
Activity [3]: Dose-dependent effect
IC50 [4]: 1.59 µM
IC50 [5]: 4.36 µM
IC50 [6]: 5.32 µM

SMILES: CN(CCCN1C(=O)c2cccc3c(N4CCC(CCO)CC4)ccc(c23)C1=O)CCCN1C(=O)c2cccc3c(N4CCC(CCO)CC4)ccc(c23)C1=O
IC50 [1]: > 50 µM
IC50 [4]: 3.2 µM
IC50 [5]: > 50 µM
IC50 [6]: 3.63 µM

SMILES: CN(CCCN1C(=O)c2cccc3c(N4CC[C@@H](O)C4)ccc(c23)C1=O)CCCN1C(=O)c2cccc3c(N4CC[C@@H](O)C4)ccc(c23)C1=O
IC50 [1]: 32.9 µM
IC50 [4]: 1.59 µM
IC50 [5]: 3.65 µM
IC50 [6]: 23.2 µM

SMILES: CN(CCCN1C(=O)c2cccc3c(N4CCC[C@H]4CO)ccc(c23)C1=O)CCCN1C(=O)c2cccc3c(N4CCC[C@H]4CO)ccc(c23)C1=O
IC50 [1]: 9.07 µM
IC50 [4]: 3.05 µM
IC50 [5]: > 50 µM
IC50 [6]: 2.3 µM

SMILES: CN(CCCN1C(=O)c2cccc3c(N4CC[C@H](O)C4)ccc(c23)C1=O)CCCN1C(=O)c2cccc3c(N4CC[C@H](O)C4)ccc(c23)C1=O
IC50 [1]: 14 µM
IC50 [4]: 0.6 µM
IC50 [5]: 1.05 µM
IC50 [6]: 2.47 µM

SMILES: CN(CCCN1C(=O)c2cccc3c(N4CCC[C@@H]4CO)ccc(c23)C1=O)CCCN1C(=O)c2cccc3c(N4CCC[C@@H]4CO)ccc(c23)C1=O
IC50 [1]: > 50 µM
IC50 [4]: 4.71 µM
IC50 [5]: > 50 µM
IC50 [6]: 4.46 µM

Activity [7]: Active
Activity [8]: Active
Activity [12]: Active
Activity [15]: Active
Activity [17]: Active
Activity [19]: 520 nm
K [20]: 1.2 ×10⁵ /M
Activity [27]: Active
Activity [29]: Active
ΔTm [30]: 8 °C
SMILES: CN(CCCN1C(=O)c2cccc3c(N4CCN(CCO)CC4)ccc(c23)C1=O)CCCN1C(=O)c2cccc3c(N4CCN(CCO)CC4)ccc(c23)C1=O
IC50 [1]: 2.94 µM
Activity [9]: 16.41%
Activity [10]: 57.79%
Activity [11]: 15.9%
Activity [13]: Non-toxic
Activity [14]: 10.4%
IC50 [4]: 1.21 µM
IC50 [5]: 2.31 µM
Activity [16]: Non-toxic
Activity [18]: Active
IC50 [6]: 0.88 µM
Activity [21]: 29.79%
Activity [22]: 51.22%
Activity [23]: 41.51%
Activity [24]: Non-toxic
Activity [25]: 3.1%
Activity [26]: 11.72%
Activity [28]: Non-toxic
Activity [31]: Non-toxic
Activity [32]: Non-toxic
Activity [33]: 3.21%
Activity [34]: 2.09%
Activity [35]: 99.65%
